These are literature values, as cited in patent publication EP4209496A1, “NOVEL FLUORESCENT BODIPY COMPOUNDS DISPLAYING ABSORPTION AND EMISSION IN THE NIR REGION” (Université de Strasbourg, priority 2022, dated 2023).

Like-named read-outs stand apart in the source and are kept apart here.

With `CCN1C(=CC=CC=CC=CC2=[N+](CCCCCC(=O)O)c3ccc(S(=O)(=O)O)cc3C2(C)C)C(C)(C)c2cc(S(=O)(=O)[O-])ccc21` [Cy7], where the note is “solvent: PBS buffer”, the λem is listed as 774 nm and the φf is given as 28%.

With `CC1(C)C(=CC=C2CCCC(C=CC3=[N+](CCCCCC(=O)[O-])c4ccc(S(=O)(=O)[O-])cc4C3(C)C)=C2Oc2ccc(S(=O)(=O)[O-])cc2)N(CCCCS(=O)(=O)[O-])c2ccc(S(=O)(=O)[O-])cc21.[Na+].[Na+].[Na+].[Na+]` [IRDye800CW], where the note is “solvent: biological serum”, the λem is 789 nm and the φf is recorded as 12%.

As to `CC1(C)C(/C=C/C=C/C=C/C=C2\N(CCCCS(=O)(=O)O)c3ccc4ccccc4c3C2(C)C)=[N+](CCCCS(=O)(=O)[O-])c2ccc3ccccc3c21` [Indocyanine green], for the setting “solvent: biological serum”, the λem is 822 nm and the φf is reported as 9%.

For `CN(C)c1ccc2nc3ccc(=[N+](C)C)cc-3sc2c1` [Methylene blue], under “solvent: biological serum”, the λem is recorded as 686 nm and the φf is reported as 10%.
